Laboratory results from patent USRE40086E1, “Method for treating bacterial infection with novel 7-substituted-9-substituted amino 6-demethyl-6-deoxytetracyclines” (Wyeth Holdings Corporation, priority 1991, dated 2008).
Values after ≈ are worked out from the molar mass of the structure shown.

Key:
Test in all cases: MIC, agar dilution
Format in all cases: cell-based
[1] = tested on: E. coli UBMS 89-2 (Sensitive); settings: E. coli UBMS 89-2 (Sensitive)
[2] = tested on: S. aureus ATCC 29213 (Sensitive); settings: S. aureus ATCC 29213 (Sensitive)
[3] = tested on: E. faecalis ATCC 29212; settings: E. faecalis ATCC 29212
[4] = tested on: E. coli ATCC 25922; settings: E. coli ATCC 25922
[5] = tested on: S. aureus UBMS 88-5 (tetM); settings: S. aureus UBMS 88-5 (tetM)
[6] = tested on: S. aureus UBMS 90-2 (tetM); settings: S. aureus UBMS 90-2 (tetM)
[7] = tested on: E. coli UBMS 88-2 (Sensitive); settings: E. coli UBMS 88-2 (Sensitive)
[8] = tested on: S. aureus IVES 1983 (meth. resistant); settings: S. aureus IVES 1983 (meth. resistant)
[9] = tested on: S. aureus UBMS 90-3 (Sensitive); settings: S. aureus UBMS 90-3 (Sensitive)
[10] = tested on: S. aureus IVES 2943 (meth. resistant); settings: S. aureus IVES 2943 (meth. resistant)
[11] = tested on: S. aureus Smith (Sensitive); settings: S. aureus Smith (Sensitive)
[12] = tested on: S. aureus UBMS 88-4 (Sensitive); settings: S. aureus UBMS 88-4 (Sensitive)
[13] = tested on: S. aureus UBMS 90-1 (tetM); settings: S. aureus UBMS 90-1 (tetM)
[14] = tested on: S. aureus UBMS 88-7 (tetK); settings: S. aureus UBMS 88-7 (tetK)
[15] = tested on: E. coli UBMS 88-1 (tetB); settings: E. coli UBMS 88-1 (tetB)
[16] = tested on: S. haemolyticus AVAH 88-3; settings: S. haemolyticus AVAH 88-3
[17] = tested on: E. faecalis 12201; settings: E. faecalis 12201
[18] = tested on: E. coli UBMS 89-1 (tetM); settings: E. coli UBMS 89-1 (tetM)

SMILES | MIC [1] [µg/mL] | MIC [2] | MIC [3] [µg/mL] | MIC [4] [µg/mL] | MIC [5] [µg/mL] | MIC [6] [µg/mL] | MIC [7] [µg/mL] | MIC [8] [µg/mL] | MIC [9] [µg/mL] | MIC [10] [µg/mL] | MIC [11] [µg/mL] | MIC [12] [µg/mL] | MIC [13] [µg/mL] | MIC [14] [µg/mL] | MIC [15] [µg/mL] | MIC [16] [µg/mL] | MIC [17] [µg/mL] | MIC [18] [µg/mL]
CN(C)c1cc(NS(=O)(=O)c2ccc(Cl)cc2)c(O)c2c1CC1CC3C(N(C)C)C(O)=C(C(N)=O)C(=O)C3(O)C(O)=C1C2=O (stereo not shown) [EE, 9-[[(4-Chlorophenyl)sulfonyl]amino)-7-(dimethylamino)-6-demethyl-6-deoxytetracycline] | >32 | 0.03 µg/mL (≈ 0.0464 µM) | 0.06 (≈ 0.0927 µM) | >32 | 0.12 (≈ 0.185 µM) | 0.12 (≈ 0.185 µM) | >32 | 1 (≈ 1.55 µM) | 0.12 (≈ 0.185 µM) | 0.5 (≈ 0.773 µM) | 0.12 (≈ 0.185 µM) | 0.12 (≈ 0.185 µM) | 0.25 (≈ 0.386 µM) | 1 (≈ 1.55 µM) | >32 | – | – | –
Cc1ccccc1C(=O)Nc1cc(N(C)C)c2c(c1O)C(=O)C1=C(O)C3(O)C(=O)C(C(N)=O)=C(O)C(N(C)C)C3CC1C2 (stereo not shown) [R, 7-(Dimethylamino)-9-((2-methylbenzoyl)amino]-6-demethyl-6-deoxytetracycline] | >32 | 0.12 µg/mL (≈ 0.203 µM) | 2 (≈ 3.39 µM) | >32 | 4 (≈ 6.77 µM) | 2 (≈ 3.39 µM) | >32 | 8 (≈ 13.5 µM) | 1 (≈ 1.69 µM) | 4 (≈ 6.77 µM) | 1 (≈ 1.69 µM) | 2 (≈ 3.39 µM) | 8 (≈ 13.5 µM) | 4 (≈ 6.77 µM) | 2 (≈ 3.39 µM) | 8 (≈ 13.5 µM) | 8 (≈ 13.5 µM) | –
CN(C)c1cc(NC(=O)c2c(F)c(F)c(F)c(F)c2F)c(O)c2c1CC1CC3C(N(C)C)C(O)=C(C(N)=O)C(=O)C3(O)C(O)=C1C2=O (stereo not shown) [T, 7-(Dimethylamino)-9-((pentafluorobenzoyl)amino]-6-demethyl-6-deoxytetracycline] | >32 | 1 µg/mL (≈ 1.5 µM) | 4 (≈ 6 µM) | >32 | 4 (≈ 6 µM) | 2 (≈ 3 µM) | >32 | 4 (≈ 6 µM) | 2 (≈ 3 µM) | 4 (≈ 6 µM) | 4 (≈ 6 µM) | 4 (≈ 6 µM) | 4 (≈ 6 µM) | 4 (≈ 6 µM) | >32 | 4 (≈ 6 µM) | 4 (≈ 6 µM) | –
CCN(CC)c1cc(NC=O)c(O)c2c1C[C@H]1C[C@H]3[C@H](N(C)C)C(O)=C(C(N)=O)C(=O)[C@@]3(O)C(O)=C1C2=O.O=S(=O)(O)O.O=S(=O)(O)O [D, 7-(Diethylamino)-9-(formylamino)-6-demethyl-6-deoxytetracycline disulfate] | 0.5 | ≦0.015 μg/ml | 0.12 | 0.5 | 0.25 | 0.12 | 0.5 | 4 | 0.06 | 4 | 0.03 | 0.12 | 0.5 | 2 | >32 | – | 1 | –
CN(C)CC(=O)Nc1cc(N(C)C)c2c(c1O)C(=O)C1=C(O)C3(O)C(=O)C(C(N)=O)=C(O)C(N(C)C)C3CC1C2.O=S(=O)(O)O (stereo not shown) [II, 7-(Dimethylamino)-9-[[(dimethylamino)acetyl]amino]-6-demethyl-6-deoxytetracycline sulfate] | 0.25 | 0.03 µg/mL | 0.03 | 0.12 | 0.12 | 0.06 | – | 1 | 0.06 | 1 | 0.12 | 0.06 | 0.25 | 0.06 | 0.25 | 0.25 | 0.12 | 0.12
